According to paper PMC3276251 (Chemical Research in Toxicology, 2011):
“Also recorded” adds a separate entry of the source. Where two headings read alike, the source gives them in different places.

How the values were obtained:
[1] = Isolated perfused rat kidney; format: in vitro ADME, Sprague-Dawley rats; conditions: for XR (excretion ratio = CLR/CLFILT) / CLFILT (filtration clearance) / Cumulative excretion (urinary) / Kidney accumulation / CL renal at 50 µM: 50 µM dose; for XR (excretion ratio = CLR/CLFILT): AUC method; for CLFILT (filtration clearance): GFR × fu; for Cumulative excretion (urinary) / Kidney accumulation: at 80 min post-dose; for Average amount in perfusate per 10-min period / Average amount in urine per 10-min period: 40–50, 50–60, 60–70 and 70–80 min periods, S.D. in parenthesis; for Concentration in perfusate / Concentration in urine: 70–80 min period, perfused with 50 µM AA-I; for Cumulative AA-I excretion in the urine (Xu): eight periods (0–80 min); for Average excretion ratio (XR): mean (S.D.) of 7 collection periods 10–80 min, XR = Cl/(fu × GFR), Cl = Cu × UFR/Cp; for Concentration of AA-I in the urines: last periods; for Concentration of AA-I in the urines / Concentration in the urines: more or less constant; for CL renal at 50 µM: male, Sprague-Dawley, rat, CLR (renal clearance), cumulative urinary excretion / AUC 0–80 min post-dose; for Concentration in the urines: 30–80 min
albumin in perfusate = albumin in perfusate (Bos taurus, UniProt P02769); assay: Perfusate binding by ultrafiltration; format: in vitro ADME
[2] = format: in vivo, male Wistar rats; conditions: 2 mg AA-I subcutaneously; for Average concentration in 24-hour collected urine: five rats, standard deviation in parentheses; for Amount in the 24 hr urine sample: Wistar rats; for Presence in collected rat urine: 24 hr urine

Sequence of albumin in perfusate (P02769 25-607): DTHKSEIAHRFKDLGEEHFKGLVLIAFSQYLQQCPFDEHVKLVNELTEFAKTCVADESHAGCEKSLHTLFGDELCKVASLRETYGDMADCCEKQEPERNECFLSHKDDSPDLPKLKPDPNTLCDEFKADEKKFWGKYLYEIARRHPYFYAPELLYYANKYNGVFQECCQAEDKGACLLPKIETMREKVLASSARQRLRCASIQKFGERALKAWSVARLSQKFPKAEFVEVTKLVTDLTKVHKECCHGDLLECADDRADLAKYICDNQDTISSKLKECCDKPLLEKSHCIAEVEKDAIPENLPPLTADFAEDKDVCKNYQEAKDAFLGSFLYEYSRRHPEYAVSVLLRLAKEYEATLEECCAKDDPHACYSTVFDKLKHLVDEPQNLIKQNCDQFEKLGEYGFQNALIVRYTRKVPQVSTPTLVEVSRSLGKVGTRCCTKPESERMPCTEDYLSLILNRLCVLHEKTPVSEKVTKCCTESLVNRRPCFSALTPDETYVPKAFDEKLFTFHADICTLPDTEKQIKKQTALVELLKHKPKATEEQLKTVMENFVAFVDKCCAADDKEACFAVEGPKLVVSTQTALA

Compound: COc1cccc2c1cc([N+](=O)[O-])c1c(C(=O)O)cc3c(c12)OCO3 [AA-I, 8-methoxy-6-nitro-phenanthro[3,4-d]-1,3-dioxole-5-carboxylic acid]
- XR (excretion ratio = CLR/CLFILT) ([1]; Kidney A): 0.10
- CLFILT (filtration clearance) ([1]; Kidney A): 0.0146 mL/min
- Cumulative excretion (urinary) ([1]; Kidney A): 0.063 % dose
- Kidney accumulation ([1]; Kidney A): 68 % dose
- Average amount in perfusate per 10-min period ([1]; Kidney A): 1441 (139) nanomoles
- Average amount in urine per 10-min period ([1]; Kidney A): 0.36 (0.05) nanomoles
- Concentration in perfusate ([1]; Kidney A): 16070 nM
- Concentration in urine ([1]; Kidney A): 480 nM
- Cumulative AA-I excretion in the urine (Xu) ([1]; Kidney A): 2.5 µmol
- Average excretion ratio (XR) ([1]; Kidney A): 0.14 (0.05)
- XR (excretion ratio = CLR/CLFILT) ([1]; Kidney B): 0.26
- CLFILT (filtration clearance) ([1]; Kidney B): 0.0138 mL/min
- Cumulative excretion (urinary) ([1]; Kidney B): 0.162 % dose
- Kidney accumulation ([1]; Kidney B): 53 % dose
- Average amount in perfusate per 10-min period ([1]; Kidney B): 2447 (298) nanomoles
- Average amount in urine per 10-min period ([1]; Kidney B): 1.24 (0.32) nanomoles
- Concentration in perfusate ([1]; Kidney B): 23800 nM
- Concentration in urine ([1]; Kidney B): 940 nM
- Cumulative AA-I excretion in the urine (Xu) ([1]; Kidney B): 6.5 µmol
- Average excretion ratio (XR) ([1]; Kidney B): 0.24 (0.05)
- Perfusate concentration of AA-I ([1]; Rat A, at 75 min): ca. 16 µM
- Concentration of AA-I in the urines ([1]; Rat A): ~500 nM
- Perfusate concentration of AA-I ([1]; Rat B, at 75 min): ~23 µM
- Concentration of AA-I in the urines ([1]; Rat B): ~1200 nM
- Amounts of AA-I in perfusate and urines ([1]; end of the experiment (80 min)): less than 50 % of the dose
- CL renal at 50 µM ([1]; Kidney A): 0.0014 mL/min
- CL renal at 50 µM ([1]; Kidney B): 0.003 mL/min
- Perfusate concentration of AA-I ([1]; sample taken at 15 min): ca. 28 µM
- fraction unbound (albumin in perfusate): 0.0225
- Average concentration in 24-hour collected urine [2]: 68 (17) µg/Lt

Compound: O=C(O)c1cc2c(c3c1c([N+](=O)[O-])cc1c(O)cccc13)OCO2 [AA-Ia, aristolochic acid Ia]
- Average amount in perfusate per 10-min period ([1]; Kidney A): 71.6 (31.0) nanomoles
- Average amount in urine per 10-min period ([1]; Kidney A): 0.72 (0.11) nanomoles
- Concentration in perfusate ([1]; Kidney A): 1240 nM
- Concentration in urine ([1]; Kidney A): 680 nM
- Average excretion ratio (XR) ([1]; Kidney A): 12 (10)
- Average amount in perfusate per 10-min period ([1]; Kidney B): 38 (10) nanomoles
- Average amount in urine per 10-min period ([1]; Kidney B): 6.7 (2.6) nanomoles
- Concentration in perfusate ([1]; Kidney B): 420 nM
- Concentration in urine ([1]; Kidney B): 4380 nM
- Average excretion ratio (XR) ([1]; Kidney B): 130 (77)
- Concentration in the urines ([1]; rat A): ca. 1 µM
- Concentration in the urines ([1]; rat B): ~7000 nM
- fu (fraction unbound to albumin in perfusate) (albumin in perfusate; ultrafiltration, perfusate): 0.0220
- Amount in the 24 hr urine sample [2]: 14.3 % of the dose
- Average concentration in 24-hour collected urine [2]: 7900 (1300) µg/Lt

Compound: O=C(O)c1cc2c(c3c1c([N+](=O)[O-])cc1c(OS(=O)(=O)O)cccc13)OCO2 [AA-Ia-O-S, 8-hydroxy-3,4-methylenedioxy-10-nitro-1-phenanthrenecarboxylic acid O-sulfate]
- Identification in the perfusate ([1]; IPK): could not be identified
- Average amount in urine per 10-min period ([1]; Kidney A): 0.36 (0.05) nanomoles
- Concentration in urine ([1]; Kidney A): 360 nM
- Average amount in urine per 10-min period ([1]; Kidney B): 0.96 (0.28) nanomoles
- Concentration in urine ([1]; Kidney B): 740 nM
- Presence in collected rat urine ([2]; listed as AA-Ia-O-S (5)): could only occasionally be observed by UV detection; also recorded: trace amounts

Compound: COc1cccc2c1cc1c3c(cc4c(c32)OCO4)C(=O)N1 [L-I, aristolactam I]
- Average amount in perfusate per 10-min period ([1]; Kidney A): 0.086 (0.062) nanomoles
- Average amount in urine per 10-min period ([1]; Kidney A): 0.029 (0.013) nanomoles
- Concentration in perfusate ([1]; Kidney A): 2 nM
- Concentration in urine ([1]; Kidney A): 53 nM
- Average excretion ratio (XR) ([1]; Kidney A): 130 (85)
- Average amount in perfusate per 10-min period ([1]; Kidney B): 0.35 (0.05) nanomoles
- Average amount in urine per 10-min period ([1]; Kidney B): 0.034 (0.015) nanomoles
- Concentration in perfusate ([1]; Kidney B): 18 nM
- Concentration in urine ([1]; Kidney B): 55 nM
- Average excretion ratio (XR) ([1]; Kidney B): 33 (22)
- fraction unbound (albumin in perfusate): 0.0235
- Amount in the 24 hr urine sample [2]: 0.01 % of the dose
- Average concentration in 24-hour collected urine [2]: 5.4 (3.8) µg/Lt

Compound: O=C1Nc2cc3c(OC4OC(C(=O)O)C(O)C(O)C4O)cccc3c3c4c(cc1c23)OCO4 [L-Ia-O-G, 8-hydroxy-3,4-methylenedioxy-10-amino-1-phenanthrene-carboxylic acid lactam O-glucuronide]
- Average amount in urine per 10-min period ([1]; Kidney A): 0.019 (0.007) nanomoles
- Concentration in urine ([1]; Kidney A): 31 nM
- Average amount in urine per 10-min period ([1]; Kidney B): 0.012 (0.009) nanomoles
- Concentration in perfusate ([1]; Kidney B): 14 nM
- Concentration in urine ([1]; Kidney B): 21 nM
- Amount in the 24 hr urine sample [2]: 0.09 % of the dose
- Average concentration in 24-hour collected urine [2]: 66 (54) µg/Lt

Compound: O=C1Nc2cc3c(OS(=O)(=O)O)cccc3c3c4c(cc1c23)OCO4 [L-Ia-O-S, 8-hydroxy-3,4-methylenedioxy-10-amino-1-phenanthrenecarboxylic acid lactam O-sulfate]
- Amount in the 24 hr urine sample [2]: 0.09 % of the dose
- Average concentration in 24-hour collected urine [2]: 53 (24) µg/Lt

Compound: O=C(O)c1cc2c(c3c1ccc1c(O)cccc13)OCO2 [compound 9, 3,4-methylenedioxy-8-hydroxy-1-phenanthrene-1-carboxylic acid]
- Presence in collected rat urine [2]: could only occasionally be observed by UV detection

Compound: aristolactam Ia [L-Ia]
- Average amount in perfusate per 10-min period ([1]; Kidney A): 0.97 (0.52) nanomoles
- Average amount in urine per 10-min period ([1]; Kidney A): 0.10 (0.03) nanomoles
- Concentration in perfusate ([1]; Kidney A): 10 nM
- Concentration in urine ([1]; Kidney A): 160 nM
- Average excretion ratio (XR) ([1]; Kidney A): 62 (50)
- Average amount in perfusate per 10-min period ([1]; Kidney B): 0.29 (0.09) nanomoles
- Average amount in urine per 10-min period ([1]; Kidney B): 0.089 (0.071) nanomoles
- Concentration in perfusate ([1]; Kidney B): 24 nM
- Average excretion ratio (XR) ([1]; Kidney B): 160 (131)
- Amount in the 24 hr urine sample [2]: 3.4 % of the dose
- Average concentration in 24-hour collected urine [2]: 1600 (678) µg/Lt
